In patent US7842294B2, “Proteins belonging to the Bcl-2 family and fragments thereof, and their use in cancer patients” (Survac APS, priority 2003, dated 2010):
Ends that are not written are not given here.

Assays:
[1] = test system: T2 cells; test: 51Cr-release cytotoxicity assay with bcl208-isolated T cells; format: cell-based, human; details: bcl208 reactive T cells enriched from a breast cancer patient, day 5
[2] = test system: peptide epitope-specific interferon-γ releasing effector cells in PBL; test: IFN-γ ELISPOT on PBL stimulated once in vitro with peptide; format: cell-based, human
Protocol: To extend the sensitivity of the ELISPOT assay, PBL were stimulated once in vitro prior to analysis. At day 0, PBL or crushed lymph nodes were thawed and plated in 2 ml/well at a concentration of 2×10^6 cells in 24-well plates (Nunc, Denmark) in X-vivo medium (Bio Whittaker, Walkersville, Md.), 5% heat-inactivated human serum, and 2 mM of L-glutamine in the presence of 10 μM of peptide. Two days later 20 IU/ml recombinant interleukin-2 (IL-2) (Chiron, Ratingen, Germany) was added to the cultures. The cultured cells were tested for reactivity in the ELISPOT on day 12.
The ELISPOT assay was used to quantify peptide epitope-specific interferon-γ releasing effector cells as described previously (4). Briefly, nitrocellulose bottomed 96-well plates (MultiScreen MAIP N45, Millipore, Hedehusene, Denmark) were coated with anti-IFN-γ antibody (1-D1K, Mabtech, Nacka, Sweden). The wells were washed, blocked by X-vivo medium, and cells added in duplicates at different cell concentrations. Peptides were then added to each well and the plates were incubated overnight. The following day, media was discarded and the wells were washed prior to addition of biotinylated secondary antibody (7-B6-1-Biotin, Mabtech). The plates were incubated for 2 hours, washed and Avidin-enzyme conjugate (AP-Avidin, Calbiochem, Life Technologies) was added to each well. Plates were incubated at RT for 1 hour and the enzyme substrate NBT/BCIP (Gibco, Life Technologies) was added to each well and incubated at RT for 5-10 min. The reaction was terminated by washing with tap-water upon the emergency of dark purple spots. The spots were counted using the ImmunoSpot® Series 2.0 Analyzer (CTL Analyzers, LLC, Cleveland, US) and the peptide specific CTL frequency could be calculated from the numbers of spot-forming cells. All assays were performed in triplicates for each peptide antigen.

[3] = test system: HLA-A2 negative breast cancer cell line ZR75-1
[4] = test system: antigen-specific CTL in PBL; test: Granzyme B (GrB) ELISPOT; format: cell-based, human
Protocol: The Granzyme B (GrB) ELISPOT assay was used for measuring antigen-specific CTL cytotoxicity as described. Briefly, nitrocellulose bottomed 96-well plates (MultiScreen MAIP N45, Millipore) were coated with GrB Capture Antibody (BD Biosciences, Brondby, Denmark). The wells were washed and blocked by X-vivo medium with 5% human serum. The cells were added at different cell concentrations. T2 cells and peptides were then added to each well and the plates were incubated 4 hours, medium was discarded and the wells were washed prior to addition of GrB Detection Antibody (BD Biosciences). The plates were incubated for 2 hours, washed and Avidin horseradish peroxidase (BD Biosciences) was added to each well. Plates were incubated at RT for 1 hour AEC Substrate Reagent (BD Biosciences) was added to each well and incubated at RT for 5-10 min. The reaction was terminated by washing with tap-water upon the emergency of red spots. The spots were counted and the peptide specific CTL frequency was calculated like for the INF-γ ELISPOT. All assays were performed in duplicate or triplicates for each peptide antigen.

[5] = target: T1, HLA-A2 (Homo sapiens, UniProt P04439, D140Y/D185E/D98H/E176V/E277Q/G131W/G231S/I119V/I121R/I166T/I218V/L300P/L318F/N151K/N90K/P208A/P217A/Q86G/Q94H/R138H/R169H/T345S); test: Assembly assay for peptide binding to MHC class I molecules (stabilisation of HLA from TAP-deficient T2 cells); details: recovery of HLA-A2 measured at 50, 5, 0.5, 0.05 μM peptide; read-out: C50 (concentration of the peptide required for half maximal binding to HLA-A2)
T1 construct: empty HLA molecules released upon cell lysis, from the TAP-deficient cell line T2; endogenous in cells; host or cells: T2 (TAP-deficient cell line), metabolically labelled with [35S]-methionine and lysed
Protocol: This assembly assay is carried out as described previously (2), and it is based on stabilisation of the HLA molecule after loading of peptide to the peptide transporter deficient cell line T2. Subsequently, correctly folded stable HLA heavy chains are immunoprecipitated using conformation dependent antibodies and the peptide binding is quantitated.
The binding affinity of the synthetic peptides (Invitrogen, Carlsbad, Calif., USA) to HLA-A2 molecules, metabolically labelled with [^35S]-methionine, was measured in the assembly assay, as described previously. The assay is based on peptide-mediated stabilisation of empty HLA molecules released upon cell lysis, from the TAP-deficient cell line T2. Stably folded HLA-molecules were immune-precipitated using the HLA class I-specific, conformation-dependent mAb W6/32, and separated by isoelectric focusing (IEF) gel electrophoresis. MHC heavy chain bands were quantified using the ImageGauge Phosphorimager program (FUJI photo film Co., Carrollton, Tex., USA). The intensity of the band is directly related to the amount of peptide-bound class I MHC complex recovered during the assay. Subsequently, the extent of stabilisation of HLA-A2 is directly related to the binding affinity of the added peptide. The recovery of HLA-A2 was measured in the presence of 50, 5, 0.5, 0.05 μM of the relevant peptide. The C50 value was calculated for each peptide as the peptide concentration sufficient for half maximal stabilisation.
The amino acid sequence of the Bcl-2 protein was screened for the most probable HLA-A2 nona- and decamer peptide epitopes, using the main HLA-A2 specific anchor residues (2). […] The assembly assay is based on stabilisation of the class I molecule after loading of different concentrations of peptide to the TAP-deficient cell line T2. Subsequently correctly folded stable MHC heavy chains are immunoprecipitated using conformation-dependent antibodies.

[6] = test system: HLA-A2 positive breast cancer cell line MDA-MB-231; test: 51Cr-release cytotoxicity assay with bcl208-isolated T cells; format: cell-based, human; details: enriched bcl208 reactive T cells, Bcl-2 expressing
[7] = PBL from 15 HLA-A2 positive breast cancer patients

EC50 [5]: 7 µM
Sequence: PLFDFSWLSL [bcl208]
killing of T2 cells loaded with peptide versus unloaded [1]: only T2 cells pulsed with bcl208 were killed
healthy individuals with CTL response ([2]; 12 healthy HLA-A2 positive individuals): one
patients with spontaneous CTL response [2, 7]: twelve
patients with spontaneous CTL response (%) [2, 7]: ≈ 80%
CLL patients with Bcl-2 response ([2]; ten HLA-A2 positive CLL patients, reactivity against bcl208 and bcl214, not broken down by peptide): five
AML patients with Bcl-2 response ([2]; three AML patients, reactivity against bcl208 and bcl214, not broken down by peptide): two
pancreatic cancer patients with CTL response ([2]; two HLA-A2 positive pancreatic cancer patients): both
cytotoxicity against ZR75-1 cells [3]: no cytotoxicity was observed
GrB release in controls ([4]; breast cancer patient no. 16 and healthy control h1): no GrB release was detected
recognition of peptide-pulsed T2 cells by CTL clones (GrB ELISPOT) ([4]; clones from HLA-A2/bcl208 bead-isolated cells, data not shown): Several of these clones showed specific recognition
lysis of MDA-MB-231 cells [6]: efficiently lysed
